In the NIST ThermoML archive (doi:10.1016/j.jct.2006.10.008):

Key:
[1] = xn = mol fraction of the nth substance listed; conditions: 298.15 K, 101 kPa, Liquid
[2] = excess molar enthalpy (molar enthalpy of mixing); xn = mol fraction of the nth substance listed; conditions: 298.15 K, 101 kPa, Liquid, Calvet calorimetry

ClCCCCl [1,3-dichloropropane] + CCOC=O
Conditions | excess molar enthalpy [kcal/mol] | mass density [kg/m3]
[1], x2 = 0.0758 | – | 1161.82
[1], x2 = 0.1392 | – | 1147.48
[1], x2 = 0.2059 | – | 1132.04
[1], x2 = 0.2686 | – | 1117.5
[1], x2 = 0.336 | – | 1101.45
[1], x2 = 0.3983 | – | 1086.31
[1], x2 = 0.4584 | – | 1071.44
[1], x2 = 0.5183 | – | 1056.42
[1], x2 = 0.5752 | – | 1041.98
[1], x2 = 0.6319 | – | 1027.35
[1], x2 = 0.6884 | – | 1012.54
[1], x2 = 0.7433 | – | 997.87
[1], x2 = 0.7967 | – | 983.56
[1], x2 = 0.849 | – | 969.23
[1], x2 = 0.9005 | – | 954.87
[1], x2 = 0.949 | – | 941.1
[2], x2 = 0.1171 | 0.00817 | –
[2], x2 = 0.2311 | 0.0165 | –
[2], x2 = 0.3403 | 0.0202 | –
[2], x2 = 0.435 | 0.0196 | –
[2], x2 = 0.5147 | 0.0165 | –
[2], x2 = 0.5813 | 0.0124 | –
[2], x2 = 0.6354 | 0.00894 | –
[2], x2 = 0.682 | 0.00588 | –
[2], x2 = 0.7186 | 0.00296 | –
[2], x2 = 0.7381 | -0.0037 | –
[2], x2 = 0.7773 | -0.00679 | –
[2], x2 = 0.8208 | -0.0092 | –
[2], x2 = 0.8622 | -0.0105 | –
[2], x2 = 0.9018 | -0.00858 | –
[2], x2 = 0.9383 | -0.00452 | –
[2], x2 = 0.9723 | -0.000287 | –

ClCCCCCl [1,4-dichlorobutane] + COC=O
Conditions | excess molar enthalpy [kcal/mol] | mass density [kg/m3]
[1], x2 = 0.1002 | – | 1123.14
[1], x2 = 0.1967 | – | 1112.22
[1], x2 = 0.2763 | – | 1102.15
[1], x2 = 0.3523 | – | 1092.16
[1], x2 = 0.4263 | – | 1081.69
[1], x2 = 0.4898 | – | 1072.05
[1], x2 = 0.5567 | – | 1061.23
[1], x2 = 0.615 | – | 1051.3
[1], x2 = 0.6692 | – | 1041.41
[1], x2 = 0.7199 | – | 1031.71
[1], x2 = 0.7663 | – | 1022.34
[1], x2 = 0.8116 | – | 1012.65
[1], x2 = 0.8535 | – | 1003.36
[1], x2 = 0.8907 | – | 994.7
[1], x2 = 0.9302 | – | 985.1
[1], x2 = 0.9657 | – | 976.07
[2], x2 = 0.1071 | 0.0424 | –
[2], x2 = 0.2326 | 0.08 | –
[2], x2 = 0.3559 | 0.1062 | –
[2], x2 = 0.4541 | 0.1196 | –
[2], x2 = 0.5426 | 0.1239 | –
[2], x2 = 0.5971 | 0.123 | –
[2], x2 = 0.6515 | 0.1218 | –
[2], x2 = 0.7083 | 0.1165 | –
[2], x2 = 0.7662 | 0.108 | –
[2], x2 = 0.8103 | 0.09393 | –
[2], x2 = 0.8803 | 0.0755 | –
[2], x2 = 0.9274 | 0.0548 | –
[2], x2 = 0.9702 | 0.032 | –

CCCCCOC=O [pentyl methanoate] + ClCCCCCCCl
Conditions | excess molar enthalpy [kcal/mol] | mass density [kg/m3]
[1], x1 = 0.0731 | – | 1051.9
[1], x1 = 0.1352 | – | 1041.69
[1], x1 = 0.1967 | – | 1031.48
[1], x1 = 0.3212 | – | 1010.41
[1], x1 = 0.3822 | – | 999.88
[1], x1 = 0.4398 | – | 989.79
[1], x1 = 0.558 | – | 968.7
[1], x1 = 0.6153 | – | 958.24
[1], x1 = 0.6723 | – | 947.69
[1], x1 = 0.7282 | – | 937.22
[1], x1 = 0.7836 | – | 926.72
[1], x1 = 0.839 | – | 916.1
[1], x1 = 0.893 | – | 905.58
[1], x1 = 0.9462 | – | 895.13
[2], x1 = 0.0697 | -0.00265 | –
[2], x1 = 0.162 | -0.00595 | –
[2], x1 = 0.2559 | -0.0114 | –
[2], x1 = 0.3406 | -0.0172 | –
[2], x1 = 0.4168 | -0.0225 | –
[2], x1 = 0.4813 | -0.0253 | –
[2], x1 = 0.4927 | -0.0259 | –
[2], x1 = 0.5399 | -0.0275 | –
[2], x1 = 0.5935 | -0.0264 | –
[2], x1 = 0.6653 | -0.0239 | –
[2], x1 = 0.731 | -0.0207 | –
[2], x1 = 0.8005 | -0.0167 | –
[2], x1 = 0.8731 | -0.0112 | –
[2], x1 = 0.9459 | -0.00559 | –
